Measured values: paper PMC6143625, “A high throughput screen for next-generation leads targeting malaria parasite transmission” (Nature Communications, 2018)
Read-outs that look alike come from different tables or passages of the source.

Assays:
[1] = system: P. falciparum stage V male gametocytes (male gamete formation); experiment: P. falciparum dual gamete formation assay (Pf DGFA), male readout (exflagellation), 48 h carry-over format; assay type: cell-based, Plasmodium falciparum NF54; details: for IC50 / inhibition at 2 µM: Plasmodium falciparum; for inhibition at 2 µM: primary screen, single replicate
[2] = system: P. falciparum 3D7 asexual blood stages; experiment: Whole-cell time extended asexual growth assay (pLDH); assay type: cell-based; details: Plasmodium falciparum; for inhibition at 2 µM: primary screen, read-out: %Inh Asex stages @2uM
Method: Asexual activity was assayed via Plasmodium lactate dehydrogenase activity (pLDH), a surrogate of asexual parasite growth. […] 2 µM artesunate and DMSO were used as the positive and negative controls, respectively. […] After plate mixing, NBT reduction was measured by absorbance at 650 nm using Envision (Perkin Elmer).

[3] = system: P. falciparum male gamete formation; experiment: Pf DGFA add-in format, male readout; assay type: cell-based, Plasmodium falciparum; details: Plasmodium falciparum; 0h preincubation/add-in
Method: In profiling mode, the Pf DGFA was performed in 96-well plates[23] in wash-out and add-in formats to aid manual manipulation steps. In the wash-out format, gametocytes were incubated for 24 h with test compounds in round-bottomed 96 well plates and then culture medium replaced three times over 6 h, to remove as much of the compound as possible from the well. […] In add-in format, gametocytes were added directly to flat-bottomed 96-well plates containing test compounds, ookinete medium and anti-Pfs25.

[4] = target: T1, recombinant luciferase (Photinus pyralis) (Photinus pyralis, UniProt P08659); experiment: Recombinant luciferase inhibition assay; assay type: biochemical
T1 construct: purchased Promega E1701
T1 sequence (P08659 whole entry): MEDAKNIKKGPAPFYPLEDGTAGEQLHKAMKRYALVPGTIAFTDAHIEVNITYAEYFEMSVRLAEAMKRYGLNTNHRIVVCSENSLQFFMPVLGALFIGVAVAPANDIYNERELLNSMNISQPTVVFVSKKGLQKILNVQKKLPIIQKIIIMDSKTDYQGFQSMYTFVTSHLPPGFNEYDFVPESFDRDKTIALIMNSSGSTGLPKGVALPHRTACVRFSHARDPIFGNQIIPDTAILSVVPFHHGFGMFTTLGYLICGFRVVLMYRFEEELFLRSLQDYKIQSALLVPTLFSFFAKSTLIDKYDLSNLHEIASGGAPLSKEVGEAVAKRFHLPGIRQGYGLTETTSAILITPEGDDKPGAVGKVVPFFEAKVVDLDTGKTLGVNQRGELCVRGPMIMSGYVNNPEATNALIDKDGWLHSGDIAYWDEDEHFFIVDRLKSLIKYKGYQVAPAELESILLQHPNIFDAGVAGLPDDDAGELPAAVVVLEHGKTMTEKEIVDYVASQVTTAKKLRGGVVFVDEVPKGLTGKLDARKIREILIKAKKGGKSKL
Method: A counter-screen to the P. berghei liver stage assay was run against recombinant luciferase (Photinus pyralis) to measure the intrinsic bioluminescence inhibition from select compounds. Briefly, compounds were plated in 12-point serial dose response (50–2.82 × 10^−4 µM) in 1536-well opaque-bottom plates (789173-F, Greiner Bio-One). A 20 pM QuantiLum® Recombinant Luciferase (E1701, Promega) containing solution was made in screening media (DMEM, 11965–092, Invitrogen; 5% FBS, 35–011-CV, Corning; 5x Pen Strep Glutamine, 10378–016, Invitrogen), and 8 µl were added to each well. After 1 h incubation at room temperature, 2 µl of Bright-Glo™ (E2610, Promega) were dispensed per well, and bioluminescence was immediately measured using the EnVision microplate reader (PerkinElmer). DMSO (0.5%) and Luciferase Inhibitor-2 (9.8 µM) (119114, MilliporeSigma) served as negative and positive controls, respectively.

[5] = system: P. falciparum stage V male gametocytes (male gamete formation); experiment: P. falciparum dual gamete formation assay (Pf DGFA), male readout (exflagellation), 48 h carry-over format; assay type: cell-based, Plasmodium falciparum NF54; details: Plasmodium falciparum, 24h preincubation/carry-over
[6] = system: Stage IV–V 3D7 gametocytes; experiment: Gametocytocidal ATP-based bioluminescence assay (GC-ATP); assay type: cell-based, Plasmodium falciparum 3D7; details: Plasmodium falciparum, 3D7; 48h incubation; read-out: Pf late stage gametocyte (ATP depletion) IC50
Method: The metabolic viability of late stage gametocytes was determined using a gametocyte ATP bioluminescence assay. Stage IV–V 3D7 gametocyte cultures were double-purified by density gradient sedimentation over NycoPrep® followed by magnetic isolation. Then, parasites (50 µl per well containing 12,500 gametocytes) were added to compound pre-dispensed 384-well plates (781091, Greiner) and incubated at 37 °C for 48 h under 5% CO2/3% O2/92% N2. BacTiter-Glo® kit (G8231, Promega) was used to determine the ATP levels of viable parasites according to manufacturer’s instructions. After reagent addition (50 µl per well), luminescence of the plates was measured using a microplate reader (HTS counter Victor, Wallac).

HepG2 human cells = system: HepG2 human cells; set-up: method as in http://dx.doi.org/10.6019/CHEMBL3507680; details: ref http://dx.doi.org/10.6019/CHEMBL3507680; cited from earlier work
[7] = BPCA vs GHCDL stock of DDD599, adjusted for correct molecular weight, read-out: Pf DGFA male IC50
[8] = SAR, Fig. 6 and Fig. 7, read-out: Male IC50
[9] = profiling / reconfirmation, read-out: Pf asexual IC50
[10] = 72h incubation, read-out: Pf Asexual IC50
[11] = dose response retest, 72 h, read-out: IC50 (µM) Asex stages
[12] = 1h incubation, read-out: Recombinant luciferase assay IC50
[13] = 48 h, dose response retest of primary hits, 48 h incubation, read-out: Male IC50
[14] = 48h preincubation/carry-over, read-out: Pf DGFA Male IC50

Row | Structure (SMILES) | IC50 [1, 7] [µM] | IC50 [1, 8] [µM] | Selectivity ([1]; parasite selectivity compared to Tox50 in HepG2 cells) | IC50 [2, 9] [µM] | IC50 [3] [µM] | IC50 ([1]; compound resynthesised at GSK, read-out: IC50 against male gametocytes) [µM] | activity in the Pf DGFA ([1]; freshly resynthesized compound) | IC50 [2, 10] [µM] | IC50 ([2]; compound resynthesised at GSK, read-out: IC50 against asexuals) [µM] | IC50 [2, 11] [µM] | inhibition at 2 µM ([2]; 72 h) [%] | IC50 [4, 12] [µM] | IC50 [5] [µM] | IC50 [6] [µM] | %Inh HepG2 @10uM (HepG2 human cells) [%] | IC50 [1, 13] [µM] | IC50 [1, 14] [µM] | inhibition at 2 µM ([1]; 48 h incubation) [%] | IC50 [4] [µM]
1 | O=C(CCl)Nc1ccc(Br)cc1 [BPCA, N-(4-bromophenyl)-2-chloroacetamide] | 1.46 | 1.42 | 17 | 0.8 | – | – | – | – | – | – | – | – | – | – | – | – | – | – | –
2 | CC(=O)c1c(C)nn(CC(=O)Nc2ccc(Br)cc2)c1C [DDD01027599] | 1.38 | – | – | 0.8 | > 10 | > 50 | inactive | 0.64 | > 50 | 1.02 | 80.5 | > 50 | 4.03 | 1.61 | 4.72 | – | – | – | –
3 | O=S(=O)(NCC1(O)CCOc2ccccc21)c1ccccc1F (centres unmarked) [DDD01028073] | – | 0.34 | – | – | 0.34 | – | – | > 20 | – | – | – | > 50 | 0.58 | > 10 | -4.25 | 0.29 | 0.24 | 95 | –
4 | Cc1ccc(S(=O)(=O)NCC2(O)CCOc3ccccc32)s1 (centres unmarked) [DDD01028074] | – | 0.61 | – | – | 0.61 | – | – | > 20 | – | – | – | > 50 | 0.79 | > 10 | -4.01 | 0.22 | 0.49 | 101 | –
5 | O=S(=O)(NCC1(O)CCOc2ccccc21)c1ccc(Cl)s1 (centres unmarked) [DDD01028075] | – | 0.24 | – | – | 0.24 | – | – | > 20 | – | – | – | > 50 | 1.32 | > 10 | -6.65 | 0.45 | 1.48 | 53.1 | –
6 | O=S(=O)(NCC1(O)CCOc2ccccc21)c1ccccc1Br (centres unmarked) [DDD01028076] | – | 0.53 | – | – | 0.53 | – | – | > 20 | – | – | – | > 50 | 0.48 | > 10 | -0.163 | 0.16 | 0.72 | 98.3 | –
7 | COc1cccc(-n2ccc3nc(N4CCCC4)ncc3c2=O)c1 [DDD01034957] | – | – | – | – | > 10 | – | – | 0.17 | – | 0.72 | 58.1 | 6.7 | > 12.5 | > 10 | -4.05 | – | > 12.5 | – | –
8 | O=S(=O)(NCC1(O)CCOc2ccccc21)c1cccs1 (centres unmarked) [DDD01035879] | – | 0.28 | – | – | 0.28 | – | – | > 20 | – | – | – | > 50 | 0.89 | > 10 | 3.15 | 1.1 | 1.65 | 83.8 | –
9 | O=S(=O)(NCC1(O)CCOc2ccccc21)c1ccc(Br)s1 (centres unmarked) [DDD01035881] | – | 0.19 | – | – | 0.19 | – | – | 17.5 | – | – | – | > 50 | 0.26 | > 10 | 3.29 | 0.54 | 0.7 | 102 | –
10 | Cc1cccc(NC(=O)c2cccc(OCc3nnnn3C)c2)n1 [DDD01038630] | – | – | – | – | > 10 | – | – | 1.13 | – | 0.963 | 84.5 | > 50 | > 12.5 | > 10 | 18.75 | – | > 12.5 | – | –
11 | CC(c1ccco1)N(C(=O)CNc1ccc(C#N)cc1)C1CC1 (centres unmarked) [DDD01062645] | – | – | – | – | 0.44 | – | – | > 20 | – | – | – | > 50 | > 12.5 | > 10 | 4.38 | 0.43 | 2.07 | 96 | –
12 | Cc1ccc(CN(c2cc(C)nc3nc(C(F)(F)F)nn23)C2CC2)cc1 [DDD01063654] | – | – | – | – | > 10 | – | – | 0.33 | – | 0.324 | 73.2 | > 50 | > 12.5 | > 10 | 0.83 | – | > 12.5 | – | –
13 | Cc1cc(C)c(CNCC(O)c2ccc(F)c(F)c2)c(C)c1.Cl (centres unmarked) [DDD01065539] | – | – | – | – | > 10 | – | – | 0.17 | – | 0.396 | 91.4 | – | > 12.5 | > 10 | -11.40 | – | > 12.5 | – | > 50
14 | CC(NCC1CCN(CCO)CC1)c1ccc(OC(F)(F)F)cc1 (centres unmarked) [DDD01073716] | – | – | – | – | > 10 | – | – | 10.8 | – | – | – | > 50 | 11 | > 10 | -2.01 | 7.09 | 1.43 | 43.9 | –
15 | CN(Cc1cccc(F)c1)C(=O)CS(=O)(=O)Cc1c(Cl)cccc1Cl [DDD01077188] | – | – | – | – | > 10 | – | – | 0.63 | – | 0.764 | 74.2 | > 50 | > 12.5 | > 10 | 5.76 | – | > 12.5 | – | –
16 | CN1CCC(NCC(O)c2cccc(OCc3ccccc3)c2)CC1 (centres unmarked) [DDD01079164] | – | – | – | – | > 10 | – | – | 7.53 | – | – | – | > 50 | 6.04 | 6.29 | 4.18 | 5.75 | 0.92 | 45.7 | –
